Structures can show the parent of a compound that is named as a salt.
Columns and labels:
DU145 cells = assay: Spheroid growth (CellTiter-Glo), DU145; format: cell-based, human; conditions: 7 days, AR negative cells
GR = GR expression (RT-qPCR and Western blot) in LNCaP cells; conditions: 3 µM, 24 h, 1 nM R1881
Method: LNCaP and VCaP cells were seeded in 6-well plates (10^6 and 2 × 10^6 cells per well, respectively) and, 48 h later, complete medium was replaced by charcoal-stripped medium with 5% FBS. Cells were then treated for 24 h with the tested compounds, and RNA extraction was performed using the Quick RNA Miniprep kit (Zymo-Research, Irvine, CA, USA), according to the manufacturer’s protocol. Reverse transcription was performed with 0.5 µg total RNA using the SuperScript III reverse transcriptase kit (ThermoFisher, Waltham, MA, USA), according to the manufacturer’s protocol, in a final volume of 20 µL. The levels of genes transcripts were measured by real time PCR using a LightCycler 480 system (Roche Life Science, Penzberg, Germany) in the presence of SYBRGreen (SYBR® Premix Ex Taq^tm) and the following primers: FKBP5, sense 5′-[sequence]-3′; antisense 5′-[sequence]-3′; PSA, sense 5′-[sequence]-3′; antisense 5′-[sequence]-3′; TMPRSS2, sense 5′-[sequence]-3′, antisense 5′-[sequence]-3′; GR, sense 5′-[sequence]-3′, antisense 5′-[sequence]-3′; HPRT, sense 5′-[sequence]-3′; antisense 5′-[sequence]-3′; GAPDH, sense 5′-[sequence]-3′; antisense 5′-[sequence]-3′. Expression levels were evaluated with the ΔΔCt method and were normalized to GAPDH. Results are expressed as mRNA expression, relative to control (untreated cells), and are the mean ± SEM of 3 independent experiments. […]

PC3 cells = assay: Spheroid growth (CellTiter-Glo), PC3; format: cell-based, human; conditions: 7 days, AR negative cells
[1] = system: U2OS-ARE-Luc control cells; assay: Luciferase activity in U2OS-ARE-Luc control cells; conditions: validation, up to 3 µM, 16 h
[2] = biological target: T1, pregnane X receptor (PXR) (Homo sapiens, UniProt O75469); conditions: 16 h
T1 sequence (O75469 146-433 limits assumed): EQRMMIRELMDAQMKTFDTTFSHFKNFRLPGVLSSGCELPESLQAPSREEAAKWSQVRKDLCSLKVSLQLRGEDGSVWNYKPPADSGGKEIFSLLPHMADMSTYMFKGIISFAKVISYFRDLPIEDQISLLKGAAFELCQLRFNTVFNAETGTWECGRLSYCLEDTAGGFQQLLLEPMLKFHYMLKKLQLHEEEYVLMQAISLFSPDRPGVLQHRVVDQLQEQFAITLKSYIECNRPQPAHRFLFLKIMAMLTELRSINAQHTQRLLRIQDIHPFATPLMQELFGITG
From the text: (§1) HG5LN MR and HG5LN PXR luciferase reporter cell lines were obtained by stable expression of individual ligand binding domains fused to GAL4 DNA binding domain in HG5LN (HeLa GAL4REx5-luciferase) cells, as previously described. HELN PR cells were obtained by stably expressing PR with the ERα DNA binding domain in HELN (HeLa ERE-luciferase) cells and HMLN GR cells were obtained by stable co-transfection of HeLa cells with a plasmid encoding for a glucocorticoid responsive gene (MMTV-Luc-SV-Neo) and a glucocorticoid receptor expressing plasmid, as previously described.
(§2) Agonistic activities were evaluated in HMLN GR, HELN PR, HG5LN MR, and HG5LN PXR cells, using dexamethasone 100 nM, R5020 100 nM, aldosterone 100 nM, and SR12813 3 μM as a positive control, respectively. […] RU486 was used as a control antagonist for GR and PR, and spironolactone for MR.
(§3) HMLN glucocorticoid receptor (GR), HG5LN mineralocorticoid receptor (MR), HELN progesterone receptor (PR) and HG5LN PXR cells were used to evaluate the antagonistic effect of the tested compounds on (A) the glucocorticoid receptor (GR), (B) the mineralocorticoid receptor (MR), (C) the progesterone receptor (PR) and (D) the agonistic activity towards the pregnane X receptor (PXR). […]

[3] = system: AR target genes TMPRSS2, FKBP5, PSA; assay: RT-qPCR of AR target genes in LNCaP cells; conditions: 3 µM, 24 h, 1 nM R1881
Method: (§8) LNCaP and VCaP cells were seeded in 6-well plates (10^6 and 2 × 10^6 cells per well, respectively) and, 48 h later, complete medium was replaced by charcoal-stripped medium with 5% FBS. Cells were then treated for 24 h with the tested compounds, and RNA extraction was performed using the Quick RNA Miniprep kit (Zymo-Research, Irvine, CA, USA), according to the manufacturer’s protocol. Reverse transcription was performed with 0.5 µg total RNA using the SuperScript III reverse transcriptase kit (ThermoFisher, Waltham, MA, USA), according to the manufacturer’s protocol, in a final volume of 20 µL. The levels of genes transcripts were measured by real time PCR using a LightCycler 480 system (Roche Life Science, Penzberg, Germany) in the presence of SYBRGreen (SYBR® Premix Ex Taq^tm) and the following primers: FKBP5, sense 5′-[sequence]-3′; antisense 5′-[sequence]-3′; PSA, sense 5′-[sequence]-3′; antisense 5′-[sequence]-3′; TMPRSS2, sense 5′-[sequence]-3′, antisense 5′-[sequence]-3′; GR, sense 5′-[sequence]-3′, antisense 5′-[sequence]-3′; HPRT, sense 5′-[sequence]-3′; antisense 5′-[sequence]-3′; GAPDH, sense 5′-[sequence]-3′; antisense 5′-[sequence]-3′. Expression levels were evaluated with the ΔΔCt method and were normalized to GAPDH. Results are expressed as mRNA expression, relative to control (untreated cells), and are the mean ± SEM of 3 independent experiments.

[4] = biological target: T2, mineralocorticoid receptor (MR) (Homo sapiens, UniProt P08235); assay: Transactivation assay in HG5LN MR cells; format: cell-based; conditions: 16 h, 1 nM aldosterone, highest concentrations used (>1 µM)
T2 construct: expressed in transfected cells
T2 sequence (P08235 726-964 limits assumed): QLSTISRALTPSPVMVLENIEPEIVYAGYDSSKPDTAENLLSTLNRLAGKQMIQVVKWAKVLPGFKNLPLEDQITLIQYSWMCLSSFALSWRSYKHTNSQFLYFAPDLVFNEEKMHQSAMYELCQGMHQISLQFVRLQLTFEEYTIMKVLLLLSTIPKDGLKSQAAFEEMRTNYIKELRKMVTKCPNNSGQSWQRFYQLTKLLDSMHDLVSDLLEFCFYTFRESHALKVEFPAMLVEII
From the text: as §1, §2, §3

VCaP spheroids = conditions: 7 days, up to the highest concentrations used
Method: (§4) prostate cancer cells. GAPDH was used as a loading control.
(§5) Spheroids were treated for 7 days with the indicated concentrations of each drug, stained with PI (1 mg/mL) for 30 min and […] was evaluated using the Celigo® imaging system. Results are expressed as mortality ratios as compared to untreated spheroids (set at 1). Each point represent s the m ean ± SEM of 3 […]
(§6) Mortality (ratio/control)
(§7) [Harmol Hydrochloride] (M)

LNCaP spheroids = conditions: 7 days, up to the highest concentrations used
Method: as §4, §5, §6, §7

[5] = system: AR target genes TMPRSS2, FKBP5, PSA; assay: RT-qPCR of AR target genes in VCaP cells; conditions: 3 µM, 24 h, 1 nM R1881
Method: as §8

LNCaP cells = assay: Spheroid growth (CellTiter-Glo), LNCaP; conditions: 7 days, 1 nM R1881

## Cc1nccc2c1[nH]c1cc(O)ccc12 [harmol hydrochloride, Harmol hydrochloride monohydrate]
DU145 cells
  Growth of DU145 spheroids: no effect
GR
  Expression of GR at the mRNA and protein levels: neither harmol nor enzalutamide treatment could significantly alter the expression of GR
PC3 cells
  Growth of PC3 spheroids: no effect
[1]
  Effect on luciferase activity in control cells: no effect
[2]
  Activity towards PXR (agonistic): did not show any significant activity
[3]
  Expression of the AR non-target gene HPRT: unaffected
  R1881-mediated expression of AR target genes TMPRSS2, FKBP5, PSA: significant decrease
[4]
  Antagonistic activity towards MR: small antagonistic activity
VCaP spheroids
  Cell death (propidium iodide positive cells) versus untreated spheroids: did not significantly affect the number of propidium iodide positive cells
LNCaP spheroids
  Cell death (propidium iodide positive cells) versus untreated spheroids: did not significantly affect the number of propidium iodide positive cells
[5]
  Expression of the AR non-target gene HPRT: unaffected
  R1881-mediated expression of AR target genes TMPRSS2, FKBP5, PSA: significant decrease
LNCaP cells
  Growth of LNCaP spheroids: A similar effect was observed

Reference: article PMC7349874, “High Content Screening Using New U2OS Reporter Cell Models Identifies Harmol Hydrochloride as a Selective and Competitive Antagonist of the Androgen Receptor” (Cells, 2020)
